The pIC50 is −log10 of the IC50, conventionally taken in molar units.

pIC50: −log10 of the molar value. Read-outs that look alike come from different tables or passages of the source.

This is an account of results in patent publication US20220056037A1 (SPV THERAPEUTICS INC., priority 2018, published 2022).

One test deals with T1, CDK4-CYCLIND1 (Homo sapiens, UniProt P11802).
T1 construct: purchased Invitrogen
Briefly: Inhibition assay, microfluidic LabChip (Nanosyn). The format is biochemical. Particulars: Table 2; ATP 200 μM; read-out: CDK4 IC50. On the procedure:
(§1) The reaction was terminated by the addition of EDTA. The plates were analyzed using a Caliper LabChip 3000.
(§2) Additional inhibition assays were performed as described above.

Another test concerns the target T2, CDK6-CYCLIND3 (Homo sapiens, UniProt Q00534).
T2 construct: purchased Carna
Briefly: Inhibition assay, microfluidic LabChip (Nanosyn). Particulars: ATP 300 μM. It is filed as biochemical. The protocol:
as §1, §2

T2 sequence (Q00534 whole entry): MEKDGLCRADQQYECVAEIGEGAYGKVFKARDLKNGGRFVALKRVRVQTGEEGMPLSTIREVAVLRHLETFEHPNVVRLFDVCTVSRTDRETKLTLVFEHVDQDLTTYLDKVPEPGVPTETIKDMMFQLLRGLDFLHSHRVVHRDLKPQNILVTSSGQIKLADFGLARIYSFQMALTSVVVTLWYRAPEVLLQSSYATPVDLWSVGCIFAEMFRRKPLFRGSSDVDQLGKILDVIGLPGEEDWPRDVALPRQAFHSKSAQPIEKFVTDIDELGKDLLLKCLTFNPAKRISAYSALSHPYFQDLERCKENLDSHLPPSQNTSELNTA
T2 sequence (P30281 whole entry partner): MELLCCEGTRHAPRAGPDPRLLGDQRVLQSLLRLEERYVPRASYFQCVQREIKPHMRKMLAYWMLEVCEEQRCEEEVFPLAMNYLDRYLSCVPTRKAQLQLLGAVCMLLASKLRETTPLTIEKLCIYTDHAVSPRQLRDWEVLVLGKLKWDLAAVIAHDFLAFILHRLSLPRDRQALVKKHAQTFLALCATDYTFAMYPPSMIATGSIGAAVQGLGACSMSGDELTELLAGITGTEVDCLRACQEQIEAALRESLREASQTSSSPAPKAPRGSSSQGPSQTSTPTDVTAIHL
T1 sequence (P11802 whole entry): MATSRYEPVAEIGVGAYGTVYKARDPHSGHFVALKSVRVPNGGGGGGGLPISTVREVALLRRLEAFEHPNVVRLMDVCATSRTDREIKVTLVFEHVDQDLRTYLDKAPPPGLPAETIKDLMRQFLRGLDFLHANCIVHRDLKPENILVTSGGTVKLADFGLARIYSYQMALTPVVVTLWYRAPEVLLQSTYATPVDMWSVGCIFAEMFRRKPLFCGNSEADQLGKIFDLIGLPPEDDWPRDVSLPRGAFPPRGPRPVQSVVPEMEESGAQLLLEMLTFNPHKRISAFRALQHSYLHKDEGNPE
T1 sequence (P24385 whole entry partner): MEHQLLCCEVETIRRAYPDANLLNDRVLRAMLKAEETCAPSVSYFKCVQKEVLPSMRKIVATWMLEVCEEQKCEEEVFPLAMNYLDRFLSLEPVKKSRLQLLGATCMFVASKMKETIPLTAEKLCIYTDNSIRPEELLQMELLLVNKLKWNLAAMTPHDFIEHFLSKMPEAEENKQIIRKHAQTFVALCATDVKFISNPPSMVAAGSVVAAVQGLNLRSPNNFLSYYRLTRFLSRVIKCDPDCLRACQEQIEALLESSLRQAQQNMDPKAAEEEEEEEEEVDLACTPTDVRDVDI

Turning to `CN(C)C(=O)c1c(F)c2cnc(Nc3ccc(N4CCNCC4)cn3)nc2n1C1CCCC1` [Compound A1, 7-cyclopentyl-5-fluoro-N,N-dimethyl-2-((5-(piperazin-1-yl)pyridin-2-yl)amino)-7H-pyrrolo[2,3-d]pyrimidine-6-carboxamide], the pIC50 was 7.41 at CDK4-CYCLIND1 and 7.27 at CDK6-CYCLIND3 (Table 2, read-out: CDK6 IC50).

Regarding `CN1CCN(c2ccc(Nc3ncc4c(F)c(C(=O)N(C)C)n(C5CCCC5)c4n3)nc2)CC1` [Compound A2], the pIC50 on CDK4-CYCLIND1 was 7.42; at CDK6-CYCLIND3 (Table 2, read-out: CDK6 IC50), 7.27.

Consider `CN(C)CCOc1ccc(Nc2ncc3c(F)c(C(=O)N(C)C)n(C4CCCC4)c3n2)nc1` [Compound A3, 7-cyclopentyl-2-((5-(2-(dimethylamino)ethoxy)pyridin-2-yl)amino)-5-fluoro-N,N-dimethyl-7H-pyrrolo[2,3-d]pyrimidine-6-carboxamide], for which the pIC50 at CDK4-CYCLIND1 is 7.32; at CDK6-CYCLIND3 (Table 2, read-out: CDK6 IC50), 7.19.

As to `CN(C)CCOc1ccc(Nc2ncc3cc(C(=O)N(C)C)n(C4CCCC4)c3n2)nc1` [Compound A4, 7-cyclopentyl-2-((5-(2-(dimethylamino)ethoxy)pyridin-2-yl)amino)-N,N-dimethyl-7H-pyrrolo[2,3-d]pyrimidine-6-carboxamide], the pIC50 was 7.72 at CDK4-CYCLIND1 and 7.46 on CDK6-CYCLIND3 (Table 2, read-out: CDK6 IC50).

With `CN(C)C(=O)c1cc2cnc(Nc3ccc(OCCN4CCCC4)cn3)nc2n1C1CCCC1` [Compound A5, 7-cyclopentyl-N,N-dimethyl-2-((5-(2-(pyrrolidin-1-yl)ethoxy)pyridin-2-yl)amino)-7H-pyrrolo[2,3-d]pyrimidine-6-carboxamide], the pIC50 on CDK4-CYCLIND1 was 7.71; on CDK6-CYCLIND3 (Table 2, read-out: CDK6 IC50) it was 7.30.

On to `CN(C)C(=O)c1cc2cnc(Nc3ccc(OCCN4CCCCC4)cn3)nc2n1C1CCCC1` [Compound A6, 7-cyclopentyl-N,N-dimethyl-2-((5-(2-(piperidin-1-yl)ethoxy)pyridin-2-yl)amino)-7H-pyrrolo[2,3-d]pyrimidine-6-carboxamide], for which the pIC50 was 7.82 at CDK4-CYCLIND1 and 7.44 on CDK6-CYCLIND3 (Table 2, read-out: CDK6 IC50).

Regarding `CN(C)CCOc1ccc(Nc2ncc3c(F)c(C(=O)N(C)C)n(C4CCCC4)c3n2)cc1` [Compound A7, 7-cyclopentyl-2-((4-(2-(dimethylamino)ethoxy)phenyl)amino)-5-fluoro-N,N-dimethyl-7H-pyrrolo[2,3-d]pyrimidine-6-carboxamide], the pIC50 was 7.65 on CDK4-CYCLIND1 and 7.20 on CDK6-CYCLIND3 (Table 2, read-out: CDK6 IC50).

As for `CN(C)C(=O)c1cc2cnc(Nc3ccc(OCCN4CCCC4)nc3)nc2n1C1CCCC1` [Compound A8, 7-cyclopentyl-N,N-dimethyl-2-((6-(2-(pyrrolidin-1-yl)ethoxy)pyridin-3-yl)amino)-7H-pyrrolo[2,3-d]pyrimidine-6-carboxamide], the pIC50 was 8.30 on CDK4-CYCLIND1 and 7.63 on CDK6-CYCLIND3 (Table 2, read-out: CDK6 IC50).

In the case of `CN(C)C(=O)c1cc2cnc(Nc3ccc(N4CCN5CCC4CC5)cn3)nc2n1C1CCCC1` [Compound A9, 2-((5-(1,4-diazabicyclo[3.2.2]nonan-4-yl)pyridin-2-yl)amino)-7-cyclopentyl-N,N-dimethyl-7H-pyrrolo[2,3-d]pyrimidine-6-carboxamide], the pIC50 at CDK4-CYCLIND1 was 7.68; on CDK6-CYCLIND3 (Table 2, read-out: CDK6 IC50), 7.26.

As to `CN(C)C(=O)c1c(F)c2cnc(Nc3ccc(N4CCN5CCC4CC5)cn3)nc2n1C1CCCC1` [Compound A10, 2-((5-(1,4-diazabicyclo[3.2.2]nonan-4-yl)pyridin-2-yl)amino)-7-cyclopentyl-5-fluoro-N,N-dimethyl-7H-pyrrolo[2,3-d]pyrimidine-6-carboxamide], the pIC50 is 7.52 on CDK4-CYCLIND1 and 7.30 at CDK6-CYCLIND3 (Table 2, read-out: CDK6 IC50).

As for `CC(C)N1CCN(c2ccc(Nc3ncc4cc(C(=O)N(C)C)n(C5CCCC5)c4n3)cc2F)CC1` [Compound A11, 7-cyclopentyl-2-((3-fluoro-4-(4-isopropylpiperazin-1-yl)phenyl)amino)-N,N-dimethyl-7H-pyrrolo[2,3-d]pyrimidine-6-carboxamide], the pIC50 was 8.41 at CDK4-CYCLIND1 and 7.92 on CDK6-CYCLIND3 (Table 2, read-out: CDK6 IC50).

Turning to `CN(C)C(=O)c1cc2cnc(Nc3ccc(N4CCNCC4)cn3)nc2n1C12CC(C1)C2` [Compound A12, 7-(bicyclo[1.1.1]pentan-1-yl)-N,N-dimethyl-2-((5-(piperazin-1-yl)pyridin-2-yl)amino)-7H-pyrrolo[2,3-d]pyrimidine-6-carboxamide], the pIC50 at CDK4-CYCLIND1 is 7.91; at CDK6-CYCLIND3 (Table 2, read-out: CDK6 IC50), 8.00.

In the case of `CN(C)C(=O)c1cc2cnc(Nc3ccc(C4=CCNCC4)cn3)nc2n1C12CC(C1)C2` [Compound A13, 7-(bicyclo[1.1.1]pentan-1-yl)-N,N-dimethyl-2-((1′,2′,3′,6′-tetrahydro-[3,4′-bipyridin]-6-yl)amino)-7H-pyrrolo[2,3-d]pyrimidine-6-carboxamide], the pIC50 at CDK4-CYCLIND1 is 7.83; on CDK6-CYCLIND3 (Table 2, read-out: CDK6 IC50) it was 8.08.

`CN1CCN(c2ccc(Nc3ncc4cc(C(=O)N(C)C)n(C56CC(C5)C6)c4n3)cc2)CC1` [Compound A14, 7-(bicyclo[1.1.1]pentan-1-yl)-N,N-dimethyl-2-((4-(4-methylpiperazin-1-yl)phenyl)amino)-7H-pyrrolo[2,3-d]pyrimidine-6-carboxamide] gave a pIC50 against CDK6-CYCLIND3 (CDK6 IC50, Table 2) of 8.15.

On to `CN(C)CCOc1ccc(Nc2ncc3cc(C(=O)N(C)C)n(C45CC(C4)C5)c3n2)nc1` [Compound A15, 7-(bicyclo[1.1.1]pentan-1-yl)-2-((5-(2-(dimethylamino)ethoxy)pyridin-2-yl)amino)-N,N-dimethyl-7H-pyrrolo[2,3-d]pyrimidine-6-carboxamide], for which the pIC50 at CDK4-CYCLIND1 is 7.50; on CDK6-CYCLIND3 (Table 2, read-out: CDK6 IC50), 7.62.

Take `CN(C)C(=O)c1cc2cnc(Nc3ccc(N4CCNCC4)cc3)nc2n1C12CC(C1)C2` [Compound A16, 7-(bicyclo[1.1.1]pentan-1-yl)-N,N-dimethyl-2-((4-(piperazin-1-yl)phenyl)amino)-7H-pyrrolo[2,3-d]pyrimidine-6-carboxamide]: the pIC50 at CDK4-CYCLIND1 is 8.53; on CDK6-CYCLIND3 (Table 2, read-out: CDK6 IC50), 8.11.

With `CN(C)C(=O)c1cc2cnc(Nc3ccc(N4CCNCC4)c(F)c3)nc2n1C12CC(C1)C2` [Compound A17, 7-(bicyclo[1.1.1]pentan-1-yl)-2-((3-fluoro-4-(piperazin-1-yl)phenyl)amino)-N,N-dimethyl-7H-pyrrolo[2,3-d]pyrimidine-6-carboxamide], the negative-log IC50 (pIC50) at CDK4-CYCLIND1 was 8.52; on CDK6-CYCLIND3 (Table 2, read-out: CDK6 IC50), 8.09.

As for `CN1CCN(c2cnc(Nc3ncc4c(F)c(C(=O)N(C)C)n(C5CCCC5)c4n3)cc2C(F)(F)F)CC1` [Compound A18, 7-cyclopentyl-5-fluoro-N,N-dimethyl-2-((5-(4-methylpiperazin-1-yl)-4-(trifluoromethyl)pyridin-2-yl)amino)-7H-pyrrolo[2,3-d]pyrimidine-6-carboxamide], the pIC50 at CDK4-CYCLIND1 is 5.56; at CDK6-CYCLIND3 (Table 2, read-out: CDK6 IC50), 4.90.

Consider `CN1CCN(c2ccc(Nc3ncc4c(F)c(C(=O)N(C)C)n(C5CCCC5)c4n3)cc2)CC1` [Compound A19, 7-cyclopentyl-5-fluoro-N,N-dimethyl-2-((4-(4-methylpiperazin-1-yl)phenyl)amino)-7H-pyrrolo[2,3-d]pyrimidine-6-carboxamide], for which the pIC50 on CDK4-CYCLIND1 is 7.81; at CDK6-CYCLIND3 (Table 2, read-out: CDK6 IC50), 7.34.

As to `CN(C)C(=O)c1c(F)c2cnc(Nc3ccc(N4CCOCC4)c(F)c3)nc2n1C1CCCC1` [Compound A20, 7-cyclopentyl-5-fluoro-2-((3-fluoro-4-morpholinophenyl)amino)-N,N-dimethyl-7H-pyrrolo[2,3-d]pyrimidine-6-carboxamide], the negative logarithm of the IC50 (pIC50) on CDK4-CYCLIND1 was 7.48; on CDK6-CYCLIND3 (Table 2, read-out: CDK6 IC50), 7.13.

With `CC(C)N1CC=C(c2ccc(Nc3ncc4c(F)c(C(=O)N(C)C)n(C5CCCC5)c4n3)nc2)CC1` [Compound A21, 7-cyclopentyl-5-fluoro-2-((1′-isopropyl-1′,2′,3′,6′-tetrahydro-[3,4′-bipyridin]-6-yl)amino)-N,N-dimethyl-7H-pyrrolo[2,3-d]pyrimidine-6-carboxamide], the pIC50 at CDK4-CYCLIND1 is 7.29; on CDK6-CYCLIND3 (Table 2, read-out: CDK6 IC50), 7.01.

Consider `CN(C)C(=O)c1c(F)c2cnc(Nc3ccc(C4=CCNCC4)cn3)nc2n1C1CCCC1` [Compound A22, 7-cyclopentyl-5-fluoro-N,N-dimethyl-2-((1′,2′,3′,6′-tetrahydro-[3,4′-bipyridin]-6-yl)amino)-7H-pyrrolo[2,3-d]pyrimidine-6-carboxamide], for which the pIC50 on CDK4-CYCLIND1 was 7.38; at CDK6-CYCLIND3 (Table 2, read-out: CDK6 IC50), 7.09.

As for `CN(C)C(=O)c1cc2cnc(Nc3ccc(N4CCN(C#N)CC4)cn3)nc2n1C1CCCC1` [Compound A23, 2-((5-(4-cyanopiperazin-1-yl)pyridin-2-yl)amino)-7-cyclopentyl-N,N-dimethyl-7H-pyrrolo[2,3-d]pyrimidine-6-carboxamide], the pIC50 at CDK4-CYCLIND1 was 7.46; at CDK6-CYCLIND3 (Table 2, read-out: CDK6 IC50), 7.01.

As for `CN(C)C(=O)c1cc2cnc(Nc3cc(C(F)(F)F)c(N4CCNCC4)cn3)nc2n1C1CCCC1` [Compound A24, 7-cyclopentyl-N,N-dimethyl-2-((5-(piperazin-1-yl)-4-(trifluoromethyl)pyridin-2-yl)amino)-7H-pyrrolo[2,3-d]pyrimidine-6-carboxamide], the pIC50 on CDK4-CYCLIND1 is 6.34; at CDK6-CYCLIND3 (Table 2, read-out: CDK6 IC50), 5.84.

For the molecule `CN(C)C(=O)c1c(F)c2cnc(Nc3cc(C(F)(F)F)c(N4CCNCC4)cn3)nc2n1C1CCCC1` [Compound A25, 7-cyclopentyl-5-fluoro-N,N-dimethyl-2-((5-(piperazin-1-yl)-4-(trifluoromethyl)pyridin-2-yl)amino)-7H-pyrrolo[2,3-d]pyrimidine-6-carboxamide], the pIC50 was 5.64 on CDK4-CYCLIND1 and 5.31 on CDK6-CYCLIND3 (Table 2, read-out: CDK6 IC50).

In the case of `CC(C)N1CCN(c2ccc(Nc3ncc4cc(C(=O)N(C)C)n(C56CC(C5)C6)c4n3)cc2)CC1` [Compound A37, 7-(bicyclo[1.1.1]pentan-1-yl)-2-((4-(4-isopropylpiperazin-1-yl)phenyl)amino)-N,N-dimethyl-7H-pyrrolo[2,3-d]pyrimidine-6-carboxamide], the pIC50 at CDK4-CYCLIND1 is 4.28.
